#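 Compound exposure: 48 hours, 5 concentrations, 96-well plates. At the GI50, growth is halved. TGI denotes the concentration required for complete inhibition of growth.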
# How the values were obtained:
# Assay in all cases: NCI tumour cell line growth inhibition, 48 h
# [1] = system: SF-268 CNS
# [2] = system: NCI-H226 lung
# [3] = system: SF-539 CNS
# [4] = system: LOX IMVI melanoma
# [5] = system: SNB-19 CNS
# [6] = system: MALME-3M melanoma
# [7] = system: NCI-H23 lung
# [8] = system: MDA-MB-435
# [9] = system: NCI/ADR-RES ovarian
# [10] = system: HS 578T breast
Structure (SMILES),TGI [1],TGI [2],TGI [3],TGI [4],TGI [5],TGI [6],TGI [7],GI50 [1],GI50 [3],GI50 [4],GI50 [5],GI50 [6],GI50 [8],TGI [8],GI50 [7],GI50 [9],TGI [9],GI50 [2],GI50 [10],TGI [10]
COC(=O)C1=Cc2cc(OC)c(OC)c(OC)c2[C@H](c2cc(OC)c(OC)c(OC)c2)C1C(=O)OC (stereo not given in full),> 100 µM,> 100 µM,> 100 µM,> 100 µM,> 100 µM,> 100 µM,> 100 µM,–,–,–,–,–,–,–,–,–,–,–,–,–
CCOC(=O)C1SC(=Nc2cccc(Cl)c2C)N=C1C (stereo not given),> 100 µM,72.6 µM,74 µM,32 µM,> 100 µM,42.4 µM,> 10 µM,–,–,–,–,–,–,–,–,–,–,–,–,–
CCN(CC)CC(C)(C)C(=O)/C=C/c1cccc(/C=C/C(=O)C(C)(C)CN(CC)CC)c1,1.68 µM,3.38 µM,2.27 µM,0.37 µM,3.89 µM,3.11 µM,2.7 µM,–,–,–,–,–,–,–,–,–,–,–,–,–
OC(c1cc(-c2cccc(Cl)c2)nc2ccccc12)C1CCCCN1 (stereo not given),2.97 µM,–,3.61 µM,3.36 µM,3.95 µM,3.77 µM,4.2 µM,1.57 µM,1.93 µM,1.76 µM,1.95 µM,2.05 µM,1.63 µM,3.15 µM,2.01 µM,1.99 µM,4.02 µM,–,–,–
O=C1/C(=C\c2ccc(F)cc2)CN(C(=O)c2ccccc2)C/C1=C\c1ccc(F)cc1,–,> 100 µM,7.58 µM,3.18 µM,20.8 µM,12.2 µM,21.8 µM,–,2.56 µM,1.41 µM,5.05 µM,3.66 µM,2.11 µM,5.65 µM,4.83 µM,4.14 µM,> 100 µM,26.6 µM,–,–
C=C=C(C(=O)OC)S(=O)c1ccccc1[N+](=O)[O-] (stereo not given),> 100 µM,> 100 µM,> 100 µM,–,> 100 µM,> 100 µM,> 100 µM,–,–,–,–,–,–,–,–,–,–,–,–,–
CN(C)c1ccc(/C=C/C(=O)[O-])cc1.CN(C)c1ccc(/C=C/C(=O)[O-])cc1.[Cu+2],> 100 µM,> 100 µM,> 100 µM,> 70.8 µM,> 100 µM,> 100 µM,> 100 µM,–,–,–,–,–,–,–,> 100 µM,–,–,–,–,–
Cc1cc([N+](=O)[O-])ccc1Sc1c2ccccc2nc2cc(Cl)ccc12,89.5 µM,> 100 µM,57.6 µM,86.8 µM,> 100 µM,> 100 µM,76.9 µM,–,–,–,–,–,–,–,–,–,–,–,–,–
Nc1c(-c2cn(Cc3ccccc3)c3ccccc23)[n+]([O-])c2ccccc2[n+]1[O-],> 100 µM,36.5 µM,–,> 100 µM,> 100 µM,> 100 µM,93.6 µM,–,–,–,–,–,–,–,–,–,–,–,–,–
O=[N+]([O-])c1ccc(C2CC(c3ccccc3Cl)=Nc3ccccc3S2)cc1 (stereo not given),18.9 µM,27.9 µM,17.7 µM,11.8 µM,–,24.9 µM,10.8 µM,–,–,–,–,–,–,–,–,–,–,–,–,–
COc1ccc(C(CCC(C)=O)C(=O)O)cc1OC (stereo not given),> 100 µM,–,> 100 µM,> 100 µM,> 100 µM,> 100 µM,> 100 µM,–,–,–,–,–,–,–,–,–,–,–,–,–
COc1ccc(C(=O)Nc2ncc(Cc3cccc(Cl)c3)s2)cc1OC,> 100 µM,> 100 µM,2.5 µM,> 100 µM,> 100 µM,> 100 µM,> 100 µM,0.882 µM,0.312 µM,0.0197 µM,0.689 µM,0.748 µM,–,–,2.51 µM,0.398 µM,> 100 µM,1.48 µM,0.445 µM,> 100 µM
